Laboratory results: ChEMBL document CHEMBL4043072, “Catechin-Bound Ceanothane-Type Triterpenoid Derivatives from the Roots of Zizyphus jujuba” (J Nat Prod, 2017)

Test: Inhibition of cell proliferation of activated rat HSC-T6 cells incubated for 24 hrs by MTT assay
Format: functional, cell-based
Details: HSC-T6, 24 h

Question: For C=C(C)[C@@H]1CC[C@]2(C(=O)O)CC[C@]3(C)[C@H](CC[C@@H]4[C@@]5(C)[C@H]6C(=O)c7c(cc(O)c8c7O[C@@H](c7ccc(O)c(O)c7)[C@@H](O)C8)O[C@@H]6C(C)(C)[C@@H]5CC[C@]43C)[C@@H]12, which IC50 is on record?
Answer: 43.5 µM

Question: Which IC50 does the source give for O=C(O[C@@H]1Cc2c(O)cc(O)cc2O[C@@H]1c1cc(O)c(O)c(O)c1)c1cc(O)c(O)c(O)c1 [EPIGALOCATECHIN GALLATE] here?
Answer: 31.6 µM
